This is an account of results in patent US12178838B2, “Synthetic neuromodulatory peptides” (Lactocore, Inc., priority 2019, dated 2024).

Common to all, as to assay type: in vivo
Data set [1] concerns BALB/C mice. Nature of the data set: Marble Burying test in mice. The note with it: ip; Diazepam 0.75 mg/kg; FQSE 5 mg/kg; 30 minutes. The method, then: (§1) After an adaptation period, the test substance was intraperitoneally injected into mice. Behavioral parameters were measured in 30 minutes after injection. The tests were administered as follows: day 1—the Open field test, day 3—the Elevated plus maze test, day 5—the Marble burying test, days 12-13—the Porsolt swim (two-day modification) test.
In the marble burying test, the installation is a standard T3 cage (19 cm×29 cm×13 cm) filled with bedding material. The standard glass marbles (15 mm in diameter, weight 5.2 g, arbitrary color) were used for the test. Twenty marbles were evenly spaced on the surface in 4 rows, 5 pieces each. The animal was placed in the testing cage for 30 minutes. At the end of the period, after the animal was carefully removed, the number of marbles that were more than two-thirds covered with bedding material was counted.
All substances were injected intraperitoneally in a volume of 10 μl of solution per 1 gram of animal weight 30 minutes prior to behavioral testing.

Data set [2] concerns BALB/C mice. Nature of the data set: Porsolt swim test (two-day modification) in mice. Particulars: ip; Diazepam 0.75 mg/kg. The method, then:
as §1
In the Porsolt Swim test, two tests were conducted in two days. The installation is a transparent cylinder, 30 cm in height, 10 cm in diameter, filled with water (temperature about 21-23° C.) to the mark of 25 cm height. On the first day each animal was placed into the cylinder for 10 minutes. Behavioral parameters were not registered. On the second day, the animals were placed into the cylinder for 5 minutes. The following parameters were measured: duration of active (vigorous movements of all limbs) and passive (weak movements of hind limbs) swimming, as well as immobility (immobilization) (Porsolt et al. (1977) Behavioral despair in mice: a primary screening test for antidepressants. Arch Int Pharmacodyn Ther. 229(2):327-36). After each test, the mice were placed into a heated cell to dry.

The subject of data set [3] is Wistar rats after chronic unpredictable mild stress. In words: CUMS model: Elevated Plus Maze test. On the procedure:
(§2) During stress, the animals were placed in individual cells and exposed to stressful conditions each day for 26 days. Two stressors were used daily, applied in the following order: • Day 1. 10 am-6 pm, rats were placed in a cold room for an hour. From 6 PM to 10 am the lights were turned on and off every 2 hours. • Day 2. 10 am-6 pm, cage tilted to 45°. From 6 PM to 10 am water deprivation. • Day 3. 10 am-6 pm, stroboscopic light. From 6 PM to 10 am the light was left on overnight. • Day 4. 10 am-6 pm, wet bedding. From 6 PM to 10 am the animals were put in a small mouse cage. • Day 5. 10 am-6 pm, no bedding. From 6 PM to 10 am the lights were turned on and off every 2 hours. • Day 6. 10 am-6 pm, a new rat was placed in the cage (6-month-old). From 6 PM to 10 am the light was left on overnight. • Day 7. 10 am-6 pm, white noise. From 6 PM to 10 am a stroboscopic light was turned on at night. • Day 8-26. Repetition of previously used stressors in the specified sequence.
Experimental substances were administered daily starting from the 58-59 day of the experiment. The administration took place 30 minutes before the start of behavioral testing. On days when there were no tests, the substances were administered in the morning.
The Elevated Plus Maze test was used to assess the level of anxiety, motor, and exploratory activity of laboratory animals. The apparatus consisted of two closed and two open arms opposite to each other (arm's length 45 cm) with the height of the sides of the closed arm −10 cm. The entire installation was raised on a stand 70 cm above the base. Rats were placed in the center of the maze with their heads facing the open arm. Within 5 minutes the number of exits to open arms and time spent in them, the number of transitions between arms, the time of rest, the duration and number of grooming acts, the number of stretch-attend postures into the open arms of the maze, and the number of rears were recorded. Normally, rodents tend to stay in the dark arms.

For data set [4] the test system is unchanged. Nature of the data set: CUMS model: Social Interaction test. The note with it: FQSE 0.5 mg/kg i.n.; diazepam 0.5 mg/kg i.p.; 4 injections; vs control non-stressed rats. The method, then: as §2
Experimental substances were administered daily starting from the 58-59 day of the experiment. […]
To assess the social activity and depressive state of the animals, a test that evaluates a social interaction of rodents was used. […] Within 10 minutes the duration and number of social contacts with the juvenile male and number of threatening and aggressive contacts were recorded. […]

For a further data set, the system named is Sprague Dawley rats. Particulars: FQSE 0.5 mg/kg i.n.; diazepam 2 mg/kg IP. On the procedure: The five doses of FQSE (SEQ ID NO:10) (0.01, 0.1, 0.5, 1 and 3 mg/kg, CS, Menlo Park, CA) were prepared fresh for each test day in sterile saline and administered intranasally (i.n.) 30 minutes prior to testing. Fifteen rats per group per peptide dose were tested with the exception that there were twenty rats in the vehicle (0) group. Each dose was administered in a randomized order across rats. Prior to dosing, the rats were lightly anesthetized (till loss of righting reflex) with isoflurane (2.5%, 0.5 L/min oxygen), placed in the recumbent position, then a thin plastic pipette (Fischer Scientific) inserted into the nares and peptide administered at a volume of 15-20 uL per nares. […]
Open field tests occurred in open field apparatus constructed of gray Plexiglas (17″L×17″ W×12″ H (43.2 cm×43.2 cm×30.5 cm; Noldus, Leesburg, VA) with digital cameras positioned above the arenas to detect different measures of activity using specialized software (Ethovision, XT12). Rats were first allowed to acclimate to the testing room for 30 minutes while in their home cage. The test was initiated by placing the animal in the center of the open field chamber and behavior recorded for 30 minutes. The observer was not in the room during testing. Testing was conducted under red-light. Arenas were cleaned thoroughly between subjects with LpH disinfectant. […]

For the compound `CN1C(=O)CN=C(c2ccccc2)c2cc(Cl)ccc21` [Diazepam], the “number of marbles buried” value in the data set on BALB/C mice [1] was 1.2±0.39. For the same compound, the “tested parameters (duration of active and passive swimming, immobility time)” value with BALB/C mice [2] is listed as “did not lead to the changes in any tested parameter”. The “result obtained in EPM (1 administration)” value in data set [3] (CUMS, FQSE 0.5 mg/kg, Diazepam) is on record as “sedative effects”. For the same compound, the “time spent on the open arms” value in data set [3] (Diazepam 0.5 mg/kg i.p., 1 injection, vs stressed animals treated with solvent) is “increase”. Also, in data set [3] (Diazepam 0.5 mg/kg i.p., vs control group), the freezing time entry is listed as “increase of freezing”. In data set [4], the “duration of social contacts” value is “significant decrease”. In the data set with Sprague Dawley rats, the center zone entries was 54.3±6.2 and the total distance is listed as 5289±263 cm.
